Measurements published in PubChem BioAssay AID248 (DTP/NCI, 2004).
Values joined by “and” are separate entries in the source; they are usually repeats but may differ in a detail not shown here. Identical values can stand only once. Inconclusive results and toxic doses are left out. Cut-off read from the data, not from the text of the source: active = T/C of 150% or more; inactive = T/C below 125%.

Test system: L1210 leukemia ip in BDF1 mice, survival T/C
Assay: NCI In Vivo Anticancer Drug Screen. Data for tumor model L1210 Leukemia (intraperitoneal) in B6D2F1 (BDF1) mice
Conditions: endpoint: mean survival time, higher = longer survival
Summary of the method: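 Tumor cells were implanted, animals were treated, and survival was followed. The result divides the treated measurement by the vehicle-control measurement.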

[1] = dose: 100.0 mg/kg/injection, schedule: Q04DX003 (ip), vehicle: Klucel (hydroxypropylcellulose) (HPC)
[2] = dose: 200.0 mg/kg/injection, schedule: Q04DX003 (ip), vehicle: Klucel (hydroxypropylcellulose) (HPC)
[3] = dose: 400.0 mg/kg/injection, schedule: Q04DX003 (ip), vehicle: Klucel (hydroxypropylcellulose) (HPC)
[4] = dose: 100.0 mg/kg/injection, schedule: Q01DX001 (ip), vehicle: carboxymethylcellulose (CMC)
[5] = dose: 200.0 mg/kg/injection, schedule: Q01DX001 (ip), vehicle: carboxymethylcellulose (CMC)
[6] = dose: 400.0 mg/kg/injection, schedule: Q01DX001 (ip), vehicle: carboxymethylcellulose (CMC)
[7] = dose: 100.0 mg/kg/injection, schedule: Q01DX009 (ip), vehicle: Klucel (hydroxypropylcellulose) (HPC)
[8] = dose: 200.0 mg/kg/injection, schedule: Q01DX009 (ip), vehicle: Klucel (hydroxypropylcellulose) (HPC)
[9] = dose: 400.0 mg/kg/injection, schedule: Q01DX009 (ip), vehicle: Klucel (hydroxypropylcellulose) (HPC)
[10] = dose: 100.0 mg/kg/injection, schedule: Q01DX001 (ip), vehicle: saline
[11] = dose: 200.0 mg/kg/injection, schedule: Q01DX001 (ip), vehicle: saline
[12] = dose: 20.0 mg/kg/injection, schedule: Q01DX009 (ip), vehicle: saline
[13] = dose: 100.0 mg/kg/injection, schedule: Q04DX002 (ip), vehicle: Klucel (hydroxypropylcellulose) (HPC)
[14] = dose: 200.0 mg/kg/injection, schedule: Q04DX002 (ip), vehicle: Klucel (hydroxypropylcellulose) (HPC)
[15] = dose: 400.0 mg/kg/injection, schedule: Q04DX002 (ip), vehicle: Klucel (hydroxypropylcellulose) (HPC)

Measured: T/C

CC(=O)N=c1ccc(C)cn1O
inactive: dose: 75.0 mg/kg/injection, schedule: Q01DX009 (ip), vehicle: Klucel (hydroxypropylcellulose) (HPC) 91 % of control | [1] 104 % of control | dose: 150.0 mg/kg/injection, schedule: Q01DX009 (ip), vehicle: Klucel (hydroxypropylcellulose) (HPC) 102 % of control | [2] 100 % of control | dose: 300.0 mg/kg/injection, schedule: Q01DX009 (ip), vehicle: Klucel (hydroxypropylcellulose) (HPC) 96 % of control | [3] 102 % of control

CCOC(=O)P(=O)(OCC)OCC
inactive: [4] 101 % of control | [5] 95 % of control | [6] 104 % of control

S=C1SCN(C2CCCCC2)CN1C1CCCCC1
inactive: [7] 94 % of control | [1] 91 % of control | [8] 95 % of control | [2] 100 % of control | [9] 94 % of control | [3] 100 % of control

Cc1cc(N(C)C)cc(C)c1N=Nc1cc(Cl)ccc1Cl
inactive: [1] 94 % of control | [2] 96 % of control | [3] 87 % of control

COc1ccc(NC(=O)Nc2cccc(Cl)c2C)cc1
inactive: dose: 100.0 mg/kg/injection, schedule: Q01DX009 (sc), vehicle: olive oil, sesame oil, peanut oil 100 % of control | dose: 100.0 mg/kg/injection, schedule: Q04DX003 (sc), vehicle: olive oil, sesame oil, peanut oil 100 % of control | dose: 200.0 mg/kg/injection, schedule: Q01DX009 (sc), vehicle: olive oil, sesame oil, peanut oil 96 % of control | dose: 200.0 mg/kg/injection, schedule: Q04DX003 (sc), vehicle: olive oil, sesame oil, peanut oil 98 % of control | dose: 400.0 mg/kg/injection, schedule: Q01DX009 (sc), vehicle: olive oil, sesame oil, peanut oil 100 % of control | dose: 400.0 mg/kg/injection, schedule: Q04DX003 (sc), vehicle: olive oil, sesame oil, peanut oil 101 % of control

Cc1ccc(C(C)C)c(OCCN2CC=CC2)c1
inactive: [10] 98 % of control | [11] 94 % of control

NC(=O)NCCc1ccccc1
inactive: [1] 102 % of control | [2] 97 % of control | [3] 102 % of control

CC(C)CCc1nc2c(c(=O)n(C)c(=O)n2C)n1C
inactive: dose: 50.0 mg/kg/injection, schedule: Q01DX001 (ip), vehicle: carboxymethylcellulose (CMC) 116 % of control | [4] 103 % of control | [5] 103 % of control | [6] 103 % of control

CC1CCN(C(=O)Nc2ccc(Cl)cc2[N+](=O)[O-])CC1
inactive: [7] 92 % of control | [8] 97 % of control | [9] 91 % of control

Nc1ccnnc1
inactive: dose: 50.0 mg/kg/injection, schedule: Q01DX009 (ip), vehicle: saline 106 % of control | dose: 100.0 mg/kg/injection, schedule: Q01DX009 (ip), vehicle: saline 101 % of control | dose: 200.0 mg/kg/injection, schedule: Q01DX009 (ip), vehicle: saline 104 % of control

O=C(Nc1ccc(F)cc1)Nc1cc(C(F)(F)F)ccc1Cl
inactive: dose: 50.0 mg/kg/injection, schedule: Q01DX009 (ip), vehicle: Klucel (hydroxypropylcellulose) (HPC) 107 % of control | [7] 92 % of control | [8] 92 % of control

CN(C)c1ccc(C(=O)CCCN2CCC3(CC2)C(=O)NCN3c2ccccc2)cc1
inactive: dose: 100.0 mg/kg/injection, schedule: Q01DX001 (ip), vehicle: Klucel (hydroxypropylcellulose) (HPC) 100 % of control | dose: 200.0 mg/kg/injection, schedule: Q01DX001 (ip), vehicle: Klucel (hydroxypropylcellulose) (HPC) 94 % of control | dose: 400.0 mg/kg/injection, schedule: Q01DX001 (ip), vehicle: Klucel (hydroxypropylcellulose) (HPC) 100 % of control

CCN1c2ccccc2C(Cl)(c2ccc(N(C)C)cc2)c2ccccc21
inactive: dose: 1.8 mg/kg/injection, schedule: Q03HX024 (ip), vehicle: saline 96 % of control | dose: 2.6 mg/kg/injection, schedule: Q03HX024 (ip), vehicle: saline 88 % of control | dose: 3.9 mg/kg/injection, schedule: Q03HX024 (ip), vehicle: saline 95 % of control | dose: 5.9 mg/kg/injection, schedule: Q03HX024 (ip), vehicle: saline 101 % of control | dose: 6.25 mg/kg/injection, schedule: Q01DX009 (ip), vehicle: saline 93 % of control | dose: 6.25 mg/kg/injection, schedule: Q04DX003 (ip), vehicle: saline 95 % of control | dose: 8.8 mg/kg/injection, schedule: Q01DX009 (ip), vehicle: saline 101 % of control | dose: 8.8 mg/kg/injection, schedule: Q03HX024 (ip), vehicle: saline 101 % of control and 104 % of control | dose: 12.5 mg/kg/injection, schedule: Q01DX001 (ip), vehicle: saline 101 % of control | dose: 12.5 mg/kg/injection, schedule: Q01DX009 (ip), vehicle: saline 115 % of control | dose: 12.5 mg/kg/injection, schedule: Q04DX003 (ip), vehicle: saline 108 % of control | dose: 13.0 mg/kg/injection, schedule: Q01DX009 (ip), vehicle: saline 105 % of control | dose: 18.0 mg/kg/injection, schedule: Q01DX001 (ip), vehicle: saline 103 % of control | dose: 18.0 mg/kg/injection, schedule: Q04DX003 (ip), vehicle: saline 104 % of control | [12] 106 % of control | dose: 25.0 mg/kg/injection, schedule: Q01DX001 (ip), vehicle: saline 111 % of control | dose: 25.0 mg/kg/injection, schedule: Q01DX009 (ip), vehicle: saline 112 % of control | dose: 25.0 mg/kg/injection, schedule: Q04DX003 (ip), vehicle: saline 104 % of control | dose: 26.0 mg/kg/injection, schedule: Q01DX001 (ip), vehicle: saline 103 % of control | dose: 26.0 mg/kg/injection, schedule: Q04DX003 (ip), vehicle: saline 102 % of control | dose: 30.0 mg/kg/injection, schedule: Q01DX009 (ip), vehicle: saline 98 % of control | dose: 39.0 mg/kg/injection, schedule: Q01DX001 (ip), vehicle: saline 104 % of control | dose: 39.0 mg/kg/injection, schedule: Q04DX003 (ip), vehicle: saline 103 % of control

O=c1[nH]c2ccccc2n1C1=CCN(Cc2ccccc2)CC1
inactive: [1] 95 % of control | [2] 109 % of control | [3] 112 % of control

NC1=C(Cl)C(=O)C(N)=C(Cl)C1=O
inactive: dose: 100.0 mg/kg/injection, schedule: Q04DX003 (ip), vehicle: saline with Tween-80 98 % of control | dose: 200.0 mg/kg/injection, schedule: Q04DX003 (ip), vehicle: saline with Tween-80 98 % of control | dose: 400.0 mg/kg/injection, schedule: Q04DX003 (ip), vehicle: saline with Tween-80 88 % of control

CCCCCCCCOC(=O)c1ccc2c(c1)Nc1cc3ccccc3cc1N2
inactive: [13] 105 % of control | [14] 101 % of control | [15] 92 % of control

COc1cc(NC(=O)Nc2c(C)cc(I)cc2C(=O)O)c(I)cc1I
inactive: dose: 75.0 mg/kg/injection, schedule: Q01DX001 (ip), vehicle: other 87 % of control | dose: 150.0 mg/kg/injection, schedule: Q01DX001 (ip), vehicle: other 92 % of control | dose: 300.0 mg/kg/injection, schedule: Q01DX001 (ip), vehicle: other 91 % of control

CCOP(=O)(OCC)C(=O)N(CC)CC
inactive: [7] 101 % of control | [8] 90 % of control | [9] 91 % of control

CC1(C)N=C(N)N=C(N)N1c1cccc(S(=O)(=O)F)c1
inactive: dose: 0.8 mg/kg/injection, schedule: Q01DX009 (ip), vehicle: saline 95 % of control | dose: 4.0 mg/kg/injection, schedule: Q01DX009 (ip), vehicle: saline 95 % of control | [12] 100 % of control | [10] 100 % of control | [11] 102 % of control

Brc1ccc2c(c1)/C(=C/c1ccccc1)c1ccccc1-2
inactive: dose: 25.0 mg/kg/injection, schedule: Q04DX002 (ip), vehicle: DMSO 92 % of control | dose: 50.0 mg/kg/injection, schedule: Q04DX002 (ip), vehicle: DMSO 95 % of control

CC(CC(C)(C)C)C(=O)Cl (stereo not given)
inactive: [10] 95 % of control | [11] 92 % of control | dose: 400.0 mg/kg/injection, schedule: Q01DX001 (ip), vehicle: saline 108 % of control

CCOC(=O)C(C)(C)C(=O)C(C)C
inactive: [13] 100 % of control | [14] 95 % of control | [15] 103 % of control

c1ccc([As](C[As](c2ccccc2)c2ccccc2)c2ccccc2)cc1
inactive: dose: 50.0 mg/kg/injection, schedule: Q04DX003 (ip), vehicle: Klucel (hydroxypropylcellulose) (HPC) 91 % of control | [1] 97 % of control | [2] 96 % of control | [3] 92 % of control
